Several values for one entry are separate records, joined by “and”; a condition that tells them apart may be missing. Equal values may be shown once.
Each compound was assayed against C. elegans (N2) complex I (NADH:ubiquinone oxidoreductase) (Caenorhabditis elegans, UniProt P24887+Q93873+Q94360) (assay: biochemical). Details: 100 µM compound, relative to solvent control, mean (SEM).
Sequence of C. elegans (N2) complex I (NADH:ubiquinone oxidoreductase) (Q94360 17-199): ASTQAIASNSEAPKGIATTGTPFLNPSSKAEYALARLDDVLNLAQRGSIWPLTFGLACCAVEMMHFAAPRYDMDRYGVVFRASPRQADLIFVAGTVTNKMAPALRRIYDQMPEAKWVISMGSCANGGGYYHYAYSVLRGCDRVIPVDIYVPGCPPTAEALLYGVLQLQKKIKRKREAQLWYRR
Sequence of C. elegans (N2) complex I (NADH:ubiquinone oxidoreductase) (P24887 whole entry): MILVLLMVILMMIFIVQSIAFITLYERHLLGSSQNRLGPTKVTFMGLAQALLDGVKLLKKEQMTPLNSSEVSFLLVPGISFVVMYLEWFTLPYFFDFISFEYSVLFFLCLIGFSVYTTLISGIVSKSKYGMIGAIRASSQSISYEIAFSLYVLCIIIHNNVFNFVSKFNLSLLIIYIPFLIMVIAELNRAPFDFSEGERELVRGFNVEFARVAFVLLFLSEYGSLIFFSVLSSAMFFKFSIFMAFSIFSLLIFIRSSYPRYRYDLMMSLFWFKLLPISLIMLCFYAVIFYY
Sequence of C. elegans (N2) complex I (NADH:ubiquinone oxidoreductase) (Q93873 31-482): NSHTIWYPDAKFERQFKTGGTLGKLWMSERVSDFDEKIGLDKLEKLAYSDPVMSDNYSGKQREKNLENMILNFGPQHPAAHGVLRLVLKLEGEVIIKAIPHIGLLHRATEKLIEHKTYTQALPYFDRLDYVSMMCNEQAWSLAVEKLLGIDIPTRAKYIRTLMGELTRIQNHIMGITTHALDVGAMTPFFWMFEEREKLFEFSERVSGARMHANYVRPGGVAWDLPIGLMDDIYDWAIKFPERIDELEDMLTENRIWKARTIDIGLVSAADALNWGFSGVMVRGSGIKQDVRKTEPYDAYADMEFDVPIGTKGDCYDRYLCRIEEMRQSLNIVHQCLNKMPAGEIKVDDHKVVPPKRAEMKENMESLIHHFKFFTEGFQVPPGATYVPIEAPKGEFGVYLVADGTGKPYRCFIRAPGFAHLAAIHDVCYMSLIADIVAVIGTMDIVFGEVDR
Format: biochemical
In short: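 Activity expressed as percent of solvent control. Complex I rate came from DCIP reduction at 600 nm (initial linear slope, 15 min) with NADH and decylubiquinone as substrates, plus antimycin A and KCN, in pH 7.5 KPi/BSA buffer. Isolated, thrice freeze-thawed mitochondria used at 0.2 mg/mL.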
For COc1ccc(N=c2cc(-c3ccc(OC)cc3)oc3ccc(O)cc23)cc1 [NPD8034], the “% Activity Complex I” value was 99.30 (2.57) %. In the case of Cc1cc(O)c(C(=O)/C=C/c2ccc(C(C)C)cc2)c(=O)o1 [NPD6240], the “% Activity Complex I” value is reported as 102.09 (1.80) %.

Same assay, conditions: 100 μM of NPD compound; C. elegans mitochondria; individual biological replicates
COc1ccc(N=c2cc(-c3ccc(OC)cc3)oc3ccc(O)cc23)cc1 [NPD8034] was tested, and the “Percent in vitro activity, Complex I (single replicate Rep1-Rep4)” value was 99.316% and 113.812% and 92.579% and 91.475%. For Cc1cc(O)c(C(=O)/C=C/c2ccc(C(C)C)cc2)c(=O)o1 [NPD6240], the “Percent in vitro activity, Complex I (single replicate Rep1-Rep4)” value was 109.404% and 106.987% and 94.906% and 97.066%.

Same assay, conditions: 100 μM of NPD compound; C. elegans mitochondria; mean of four biological replicates
COc1ccc(N=c2cc(-c3ccc(OC)cc3)oc3ccc(O)cc23)cc1 [NPD8034] was tested, and the “Percent in vitro activity, Complex I (Mean)” value was 99.295%. Cc1cc(O)c(C(=O)/C=C/c2ccc(C(C)C)cc2)c(=O)o1 [NPD6240] was tested, and the “Percent in vitro activity, Complex I (Mean)” value was 102.091%.

Each compound was assayed against C. elegans complex II (succinate dehydrogenase) (Caenorhabditis elegans, UniProt O62215+P41956+Q09545) (assay: In vitro complex II activity assay, C. elegans mitochondria). Details: 100 µM compound, relative to solvent control, mean (SEM).
Sequence of C. elegans complex II (succinate dehydrogenase) (P41956 30-182): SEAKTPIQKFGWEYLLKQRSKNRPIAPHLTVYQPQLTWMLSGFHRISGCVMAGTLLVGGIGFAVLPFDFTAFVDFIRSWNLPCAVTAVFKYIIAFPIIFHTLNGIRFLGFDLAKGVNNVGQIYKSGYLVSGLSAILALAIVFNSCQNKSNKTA
Sequence of C. elegans complex II (succinate dehydrogenase) (Q09545 22-298): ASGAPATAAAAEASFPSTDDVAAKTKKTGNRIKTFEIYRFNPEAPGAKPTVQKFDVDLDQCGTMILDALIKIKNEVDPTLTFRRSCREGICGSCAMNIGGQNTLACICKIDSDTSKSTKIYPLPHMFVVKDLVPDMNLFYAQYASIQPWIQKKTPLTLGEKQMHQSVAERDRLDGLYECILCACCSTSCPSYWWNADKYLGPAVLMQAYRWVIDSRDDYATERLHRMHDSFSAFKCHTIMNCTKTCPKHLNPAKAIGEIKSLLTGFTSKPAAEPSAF
Sequence of C. elegans complex II (succinate dehydrogenase) (Q09508 32-646, further chain): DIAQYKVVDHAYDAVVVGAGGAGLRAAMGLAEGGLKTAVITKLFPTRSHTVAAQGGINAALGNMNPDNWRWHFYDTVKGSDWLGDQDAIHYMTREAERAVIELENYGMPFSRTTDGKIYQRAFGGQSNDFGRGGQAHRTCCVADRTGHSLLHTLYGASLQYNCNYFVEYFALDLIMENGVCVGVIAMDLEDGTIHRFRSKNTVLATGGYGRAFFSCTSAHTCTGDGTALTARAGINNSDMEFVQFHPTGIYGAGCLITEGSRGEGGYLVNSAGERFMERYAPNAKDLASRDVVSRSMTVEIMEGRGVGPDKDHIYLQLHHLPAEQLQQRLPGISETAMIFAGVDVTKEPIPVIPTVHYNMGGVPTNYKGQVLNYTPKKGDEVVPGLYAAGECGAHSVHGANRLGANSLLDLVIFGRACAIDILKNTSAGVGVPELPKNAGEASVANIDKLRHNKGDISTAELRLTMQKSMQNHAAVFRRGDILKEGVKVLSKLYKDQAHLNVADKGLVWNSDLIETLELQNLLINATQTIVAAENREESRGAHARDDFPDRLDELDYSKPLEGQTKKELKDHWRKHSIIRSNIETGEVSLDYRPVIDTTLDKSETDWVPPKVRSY
Sequence of C. elegans complex II (succinate dehydrogenase) (O62215 31-145): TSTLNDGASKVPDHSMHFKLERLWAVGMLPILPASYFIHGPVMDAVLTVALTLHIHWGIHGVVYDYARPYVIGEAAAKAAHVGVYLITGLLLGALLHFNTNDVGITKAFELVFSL
Format: biochemical
Experimental: (§1) Mitochondria were isolated from the following free-living nematode strains: C. elegans—N2, CB3474, ECA882, ECA917, ECA1075, ECA1080; C. briggsae—AF16; P. pacificus—PS312; and P. hermaphrodita—B178. With the exception of the P. hermaphrodita strain B178, adult worms of each strain were grown in bulk through liquid culture to obtain mitochondria in sufficient quantities. Due to poor growth in liquid media, mixed stage populations of P. hermaphrodita were washed off and collected from NGM plates seeded with OP50. The isolation of mitochondria from all free-living nematode strains followed the protocol previously outlined in Burns et al.[24]. In brief, a 1 L saturated culture of E. coli HB101 was concentrated 20-fold in 50 mL complete S-medium. ~500,000 L1 worms synchronized from an embryo preparation performed the day prior were added to the S-media/HB101 suspension and grown to adulthood over the course of 3.5 days at 20 °C with shaking at 165 rpm. Following growth, worms were collected in 10 ×15 mL conical tubes and washed 7 times in M9 buffer. Worm suspensions were then combined into a single 15 mL conical tube and diluted to a final volume of 15 mL with M9 buffer. 1 mL aliquots of worm suspension were then distributed to 15 × 1.5 mL screw-cap microcentrifuge tubes and were pelleted at 500 g for 1 min. Excess M9 was aspirated without disturbing the worm pellet. 600 μL ice-cold isolate buffer A (250 mM sucrose, 10 mM Tris (pH 7.5), 1 mM EDTA, 1 mM PMSF (freshly prepared)) and 300 μL cold glass beads were then added to each tube. Tubes were incubated on ice for 10 min, and the worms were then lysed by bead beating (6 x 30 s, with 1 min cooling intervals). Tubes containing worm lysate were centrifuged at 1,000 g for 10 min at 4 °C and the supernatant was transferred to 15 new microcentrifuge tubes on ice. The tubes were centrifuged a second time at 1,000 g for 10 min at 4 °C and the supernatant was once again transferred to 15 new microcentrifuge tubes on ice. These tubes were then centrifuged at 16,000 g for 10 min at 4 °C. The resulting mitochondrial pellet was washed twice by re-suspension in 300 μL of ice-cold isolate buffer B (250 mM sucrose, 10 mM Tris (pH 7.5), 1 mM EDTA). Following the final wash, isolation buffer was aspirated from each tube and the pellets were flash-frozen in ethanol/dry ice and stored at −80 °C until needed.
(§2) The enzymatic activities of individual ETC complexes (I-IV) were assessed spectrophotometrically in isolated mitochondria using a Varioskan LUX Multimode plate reader (ThermoFisher Scientific). Mitochondrial pellets previously isolated were thawed on ice and resuspended in ice-cold isolation buffer (250 mM sucrose, 10 mM Tris (pH 7.5), 1 mM EDTA). The BCA assay (Walker, 1994) was used to quantify the protein concentration of mitochondria suspensions; solutions were diluted to a concentration of 0.2 mg/mL for use in all assays. For the complex I assay, mitochondria pellets were freeze-thawed on ice three times to increase enzyme accessibility. […] 20 μL mitochondria suspension was then added/mixed with a pipette to initiate the reaction. Immediately following the addition of mitochondria, absorbance was measured (complex I and II: 600 nm; complex III and IV: 550 nm) in 30 s intervals over 15 min. Enzymatic activity was determined in each reaction by plotting absorbance versus time and calculating the slope of the curve during the initial linear phase of the reaction. […] Percent activity of each complex was calculated by dividing the enzyme-specific activity of each well by the enzyme-specific activity of the corresponding solvent controls.
Complex II (succinate dehydrogenase) activity was assessed using the DCIP-coupled method previously described in Burns et al.[24].
For preliminary screens of hit compounds, compounds were screened at 100 μM; data are the average of at least three biological replicates. The complex I and II activity assays were used for additional dose-response experiments.
With COc1ccc(N=c2cc(-c3ccc(OC)cc3)oc3ccc(O)cc23)cc1 [NPD8034] the “% Activity Complex II” value was 89.02 (4.77) %. For Cc1cc(O)c(C(=O)/C=C/c2ccc(C(C)C)cc2)c(=O)o1 [NPD6240], the “% Activity Complex II” value was 87.73 (3.81) %.

Same assay, conditions: 100 μM of NPD compound; C. elegans mitochondria; individual biological replicates
For COc1ccc(N=c2cc(-c3ccc(OC)cc3)oc3ccc(O)cc23)cc1 [NPD8034], the “Percent in vitro activity, Complex II (single replicate Rep1-Rep4)” value was 117.368% and 83.101% and 77.239% and 78.358%. Cc1cc(O)c(C(=O)/C=C/c2ccc(C(C)C)cc2)c(=O)o1 [NPD6240] was tested, and the “Percent in vitro activity, Complex II (single replicate Rep1-Rep4)” value was 105.436% and 95.089% and 72.487% and 77.924%.

Same assay, conditions: 100 μM of NPD compound; C. elegans mitochondria; mean of four biological replicates
For COc1ccc(N=c2cc(-c3ccc(OC)cc3)oc3ccc(O)cc23)cc1 [NPD8034], the “Percent in vitro activity, Complex II (Mean)” value was 89.016%. With Cc1cc(O)c(C(=O)/C=C/c2ccc(C(C)C)cc2)c(=O)o1 [NPD6240] the “Percent in vitro activity, Complex II (Mean)” value was 87.734%.

The compounds below were run on C. elegans complex III (decylubiquinol-cytochrome C reductase) (assay: In vitro complex III activity assay, C. elegans mitochondria). Details: 100 µM compound, relative to solvent control, mean (SEM).
Format: biochemical, Caenorhabditis elegans
Experimental: as §1, §2
Antimycin A-sensitive complex III (decylubiquinol-cytochrome C […]) activity was determined by measuring the reduction of cytochrome C (CytC) as optimized in Luo et al.[59]. Decylubiquinol for complex III assays was prepared fresh as described in Janssen and Boyle, 2019[60].
For COc1ccc(N=c2cc(-c3ccc(OC)cc3)oc3ccc(O)cc23)cc1 [NPD8034], the “% Activity Complex III” value was 95.08 (1.51) %. Cc1cc(O)c(C(=O)/C=C/c2ccc(C(C)C)cc2)c(=O)o1 [NPD6240] was tested, and the “% Activity Complex III” value was 58.21 (2.30) %.

Same assay, conditions: 100 μM of NPD compound; C. elegans mitochondria; individual biological replicates
For COc1ccc(N=c2cc(-c3ccc(OC)cc3)oc3ccc(O)cc23)cc1 [NPD8034], the “Percent in vitro activity, Complex III (single replicate Rep1-Rep4)” value was 95.115% and 96.990% and 101.326% and 86.891%. For Cc1cc(O)c(C(=O)/C=C/c2ccc(C(C)C)cc2)c(=O)o1 [NPD6240], the “Percent in vitro activity, Complex III (single replicate Rep1-Rep4)” value was 63.255% and 68.621% and 49.848% and 51.103%.

Same assay, conditions: 100 μM of NPD compound; C. elegans mitochondria; mean of four biological replicates
In the case of COc1ccc(N=c2cc(-c3ccc(OC)cc3)oc3ccc(O)cc23)cc1 [NPD8034], the “Percent in vitro activity, Complex III (Mean)” value is reported as 95.080%. For Cc1cc(O)c(C(=O)/C=C/c2ccc(C(C)C)cc2)c(=O)o1 [NPD6240], the “Percent in vitro activity, Complex III (Mean)” value was 58.207%.

The compounds below were run on C. elegans complex IV (cytochrome C oxidase) (assay: In vitro complex IV activity assay, C. elegans mitochondria). Details: 100 µM compound, relative to solvent control, mean (SEM).
Format: biochemical, Caenorhabditis elegans
Experimental: as §1, §2
Complex IV (cytochrome C oxidase) activity was determined by following the oxidation of CytC in the protocol outlined by Janssen and Boyle, 2019[60]. Reduced CytC was prepared fresh by adding 1 μL increments of 1 M dithiothreitol to a 1 mM solution of CytC and vortexing. A colour change from brown to orange/pink signals when CytC has been reduced.
For COc1ccc(N=c2cc(-c3ccc(OC)cc3)oc3ccc(O)cc23)cc1 [NPD8034], the “% Activity Complex IV” value was 96.04 (2.78) %. For Cc1cc(O)c(C(=O)/C=C/c2ccc(C(C)C)cc2)c(=O)o1 [NPD6240], the “% Activity Complex IV” value was 26.82 (0.75) %.

Same assay, conditions: 100 μM of NPD compound; C. elegans mitochondria; individual biological replicates
COc1ccc(N=c2cc(-c3ccc(OC)cc3)oc3ccc(O)cc23)cc1 [NPD8034] was tested, and the “Percent in vitro activity, Complex IV (single replicate Rep1-Rep4)” value was 88.996% and 91.859% and 90.669% and 112.640%. For Cc1cc(O)c(C(=O)/C=C/c2ccc(C(C)C)cc2)c(=O)o1 [NPD6240], the “Percent in vitro activity, Complex IV (single replicate Rep1-Rep4)” value was 23.388% and 25.790% and 27.706% and 30.409%.

Same assay, conditions: 100 μM of NPD compound; C. elegans mitochondria; mean of four biological replicates
With COc1ccc(N=c2cc(-c3ccc(OC)cc3)oc3ccc(O)cc23)cc1 [NPD8034] the “Percent in vitro activity, Complex IV (Mean)” value was 96.041%. Cc1cc(O)c(C(=O)/C=C/c2ccc(C(C)C)cc2)c(=O)o1 [NPD6240] was tested, and the “Percent in vitro activity, Complex IV (Mean)” value was 26.823%.

What follows are compounds tested on C. elegans (assay: C. elegans chemical screens of RIKEN NPD libraries at 50 μM (hit identification in KCN survival and development/viability assays)). Details: screened at 50 μM in triplicate; hit = modified z-score < −3; KCN = KCN survival assay, Dev. & Viability = development/viability assay.
Format: cell-based, Caenorhabditis elegans
COc1ccc(N=c2cc(-c3ccc(OC)cc3)oc3ccc(O)cc23)cc1 [NPD8034] was tested, and the “Hit Type” value was “KCN”. Cc1cc(O)c(C(=O)/C=C/c2ccc(C(C)C)cc2)c(=O)o1 [NPD6240] was tested, and the “Hit Type” value was “KCN”.

These compounds were tested on L1 wild-type C. elegans (assay: not given). Details: not given.
Cc1cc(O)c(C(=O)/C=C/c2ccc(C(C)C)cc2)c(=O)o1 [NPD6240] was tested, and the “C. elegans L1 relative motility, 3-hour post 200 µM KCN dilution” value was 0.078.

Same assay, conditions: caenorhabditis elegans
Compound COc1ccc(N=c2cc(-c3ccc(OC)cc3)oc3ccc(O)cc23)cc1 [NPD8034] has an LC50 of 12 µM. For Cc1cc(O)c(C(=O)/C=C/c2ccc(C(C)C)cc2)c(=O)o1 [NPD6240], the LC50 was 7.6 µM.

What follows are compounds tested on HEK293 cells (assay: not given). Details: read-out: HEK293 Cell Viability Assay LC50; 2 days exposure.
COc1ccc(N=c2cc(-c3ccc(OC)cc3)oc3ccc(O)cc23)cc1 [NPD8034] gave a CC50 of 11.2 µM. Work on Cc1cc(O)c(C(=O)/C=C/c2ccc(C(C)C)cc2)c(=O)o1 [NPD6240] yielded a CC50 of 24.8 µM.
